Laboratory results as given in US11053213B2, “Pharmaceutical compounds” (ALMAC DISCOVERY LIMITED, priority 2016, dated 2021).

What follows are compounds tested against USP19 (Homo sapiens (Human), UniProt O94966) (assay: USP19 activity assay (fluorescence polarisation, Ubiquitin-Lys-TAMRA substrate)). Conditions: full-length USP19 2.5 nM, 30 min pre-incubation, Ub substrate 500 nM; average of at least two duplicate experiments.
Assay type: biochemical
Experimental: Unless otherwise stated, all other reagents were purchased from Sigma. Enzymatic reactions were conducted in black flat bottom polystyrene 384-well plates (Nunc) and 30 μL total volume. […] Inhibitors were stored as 10 mM DMSO stocks in an inert environment (low humidity, dark, low oxygen, room temperature) using the Storage Pod System and serial dilutions were prepared in buffer just prior to the assay (from 200 μM to 2 pM, 8-18 data point curve). Following incubation at RT for 30 min, the enzymatic reactions were initiated by dispensing the Ub substrate (500 nM, 10 μL). FP was measured every 15 min over a period of 90 min (within the linear range of the assay) using a Synergy 4 plate reader (BioTek) exciting at 530 nm and measuring the amount of parallel and perpendicular light at 575 nm. The FP signal was subsequently normalised to the no compound control.

USP19, sequence (O94966 whole entry): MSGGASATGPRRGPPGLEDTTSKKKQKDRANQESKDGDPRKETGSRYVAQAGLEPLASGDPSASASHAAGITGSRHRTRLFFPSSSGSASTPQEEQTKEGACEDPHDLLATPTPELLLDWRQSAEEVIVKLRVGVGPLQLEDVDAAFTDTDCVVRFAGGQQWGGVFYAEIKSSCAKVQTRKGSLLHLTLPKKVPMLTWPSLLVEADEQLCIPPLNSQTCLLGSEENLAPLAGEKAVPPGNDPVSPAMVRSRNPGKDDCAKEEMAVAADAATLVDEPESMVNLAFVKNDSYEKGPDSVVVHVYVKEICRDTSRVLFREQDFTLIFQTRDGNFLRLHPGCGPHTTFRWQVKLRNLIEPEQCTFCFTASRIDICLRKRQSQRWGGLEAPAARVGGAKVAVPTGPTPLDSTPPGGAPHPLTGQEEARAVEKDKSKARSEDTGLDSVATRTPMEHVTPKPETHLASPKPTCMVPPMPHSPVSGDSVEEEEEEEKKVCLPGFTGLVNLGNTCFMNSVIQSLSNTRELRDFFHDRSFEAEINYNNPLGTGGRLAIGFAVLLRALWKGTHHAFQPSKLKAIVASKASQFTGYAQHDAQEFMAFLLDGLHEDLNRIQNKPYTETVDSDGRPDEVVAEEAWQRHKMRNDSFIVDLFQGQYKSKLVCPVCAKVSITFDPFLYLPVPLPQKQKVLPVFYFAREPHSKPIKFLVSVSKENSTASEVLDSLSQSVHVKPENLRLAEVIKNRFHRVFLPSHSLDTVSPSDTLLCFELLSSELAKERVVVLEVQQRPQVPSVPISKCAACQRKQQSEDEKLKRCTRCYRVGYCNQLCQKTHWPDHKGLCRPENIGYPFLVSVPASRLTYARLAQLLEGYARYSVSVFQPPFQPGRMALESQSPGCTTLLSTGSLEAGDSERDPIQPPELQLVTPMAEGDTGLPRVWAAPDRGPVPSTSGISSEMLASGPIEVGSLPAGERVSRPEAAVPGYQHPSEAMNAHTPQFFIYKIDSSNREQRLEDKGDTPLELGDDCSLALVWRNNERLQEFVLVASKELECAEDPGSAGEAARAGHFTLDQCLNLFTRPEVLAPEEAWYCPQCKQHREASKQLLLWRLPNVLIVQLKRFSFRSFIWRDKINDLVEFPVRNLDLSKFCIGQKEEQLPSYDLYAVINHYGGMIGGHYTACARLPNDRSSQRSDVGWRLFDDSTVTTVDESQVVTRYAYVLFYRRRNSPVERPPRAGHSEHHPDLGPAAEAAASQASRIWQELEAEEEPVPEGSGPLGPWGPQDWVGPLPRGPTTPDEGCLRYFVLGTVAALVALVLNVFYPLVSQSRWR

Compound | IC50
CN(C)C(=O)c1cn(CC2(O)CCN(C(=O)C34CC(C3)C4)CC23CCCC3)c(=O)cc1-c1ccccc1 (centres unmarked) [Example 191, 1-((7-(Bicyclo[1.1.1]pentane-1-carbonyl)-10-hydroxy-7-azaspiro[4.5]decan-10-yl)methyl)-N,N-dimethyl-6-oxo-4-phenyl-1,6-dihydropyridine-3-carboxamide] | 50 to 250 µM
C[C@H](CC(=O)N1CCC(O)(Cn2cnc(-c3ccco3)cc2=O)CC1)c1ccccc1 [Example 26, (R)-6-(Furan-2-yl)-3-((4-hydroxy-1-(3-phenylbutanoyl)piperidin-4-yl)methyl)pyrimidin-4(3H)-one] | 50 to 250 µM
CN(C)C(=O)c1cn(CC2(O)CCN(C(=O)COC3CCC3)CC23CCCC3)c(=O)cc1-c1ccccc1 (centres unmarked) [Example 201, 1-((7-(2-Cyclobutoxyacetyl)-10-hydroxy-7-azaspiro[4.5]decan-10-yl)methyl)-N,N-dimethyl-6-oxo-4-phenyl-1,6-dihydropyridine-3-carboxamide] | 5 to 50 µM
CN(C)C(=O)c1cn(CC2(O)CCN(C(=O)[C@@H]3C[C@@H]3c3ccccc3)CC23CCCC3)c(=O)cc1-c1ccccc1 (stereo partly drawn) [Example 174, 1-((10-Hydroxy-7-((1R,2S)-2-phenylcyclopropane-1-carbonyl)-7-azaspiro[4.5]decan-10-yl)methyl)-N,N-dimethyl-6-oxo-4-phenyl-1,6-dihydropyridine-3-carboxamide] | < 0.5 µM
C[C@H](CC1CCCCC1)C(=O)N1CC[C@@](O)(Cn2cc(C(=O)N(C)C)c(-c3ccccc3F)cc2=O)C(C)(C)C1 [Example 205, 1-(((S)-1-((R)-3-Cyclohexyl-2-methylpropanoyl)-4-hydroxy-3,3-dimethylpiperidin-4-yl)methyl)-4-(2-fluorophenyl)-N,N-dimethyl-6-oxo-1,6-dihydropyridine-3-carboxamide] | < 0.5 µM
C[C@H](CC(=O)N1CCC(O)(Cn2nc(-c3ccccc3)c(-c3ccccc3)cc2=O)CC1)c1ccccc1 [Example 19, (R)-2-((4-Hydroxy-1-(3-phenylbutanoyl)piperidin-4-yl)methyl)-5,6-diphenylpyridazin-3(2H)-one] | 5 to 50 µM
C[C@H](CC1CCCCC1)C(=O)N1CC[C@@](O)(Cn2cc(C(=O)N3CCNC[C@H]3CO)c(-c3ccccc3)cc2=O)C(C)(C)C1 [Example 208, 1-(((S)-1-((R)-3-Cyclohexyl-2-methylpropanoyl)-4-hydroxy-3,3-dimethylpiperidin-4-yl)methyl)-5-((S)-2-(hydroxymethyl)piperazine-1-carbonyl)-4-phenylpyridin-2(1H)-one] | < 0.5 µM
CC(OC1CCCCC1)C(=O)N1CCC(O)(Cn2cnc(-c3ccccc3F)cc2=O)C(C)(C)C1 (centres unmarked) [Example 126, 3-((1-(2-(Cyclohexyloxy)propanoyl)-4-hydroxy-3,3-dimethylpiperidin-4-yl)methyl)-6-(2-fluorophenyl)pyrimidin-4(3H)-one] | 50 to 250 µM
Cc1nc(-c2ccccc2)cc(=O)n1CC1(O)CCN(C(=O)CCc2ccccc2)CC1 [Example 34, 3-((4-Hydroxy-1-(3-phenylpropanoyl)piperidin-4-yl)methyl)-2-methyl-6-phenylpyrimidin-4(3H)-one] | 50 to 250 µM
C[C@H](CC1CCCCC1)C(=O)N1CC[C@@](O)(Cn2cc(C(=O)N3CCNCC3)c(C3CC3)cc2=O)C(C)(C)C1 [Example 221, 1-(((S)-1-((R)-3-Cyclohexyl-2-methylpropanoyl)-4-hydroxy-3,3-dimethylpiperidin-4-yl)methyl)-4-cyclopropyl-5-(piperazine-1-carbonyl)pyridin-2(1H)-one] | 0.5 to 5 µM
C[C@H](CC1CCCCC1)C(=O)N1CCC(O)(Cn2cc(C(=O)N(C)C)ccc2=O)C2(CCCC2)C1 (stereo partly drawn) [Example 127, 1-((7-((R)-3-Cyclohexyl-2-methylpropanoyl)-10-hydroxy-7-azaspiro[4.5]decan-10-yl)methyl)-N,N-dimethyl-6-oxo-1,6-dihydropyridine-3-carboxamide] | 0.5 to 5 µM
CN(C)C(=O)c1cn(CC2(O)CCN(C(=O)C3(CC(F)F)CC3)CC23CCCC3)c(=O)cc1-c1ccccc1 (centres unmarked) [Example 178, 1-((7-(1-(2,2-Difluoroethyl)cyclopropane-1-carbonyl)-10-hydroxy-7-azaspiro[4.5]decan-10-yl)methyl)-N,N-dimethyl-6-oxo-4-phenyl-1,6-dihydropyridine-3-carboxamide] | 50 to 250 µM
CN(C)C(=O)c1cn(CC2(O)CCN(C(=O)C[C@@H](c3ccccc3)C(F)F)CC23CCCC3)c(=O)cc1-c1ccccc1 (stereo partly drawn) [Example 180, 1-((7-((S)-4,4-Difluoro-3-phenylbutanoyl)-10-hydroxy-7-azaspiro[4.5]decan-10-yl)methyl)-N,N-dimethyl-6-oxo-4-phenyl-1,6-dihydropyridine-3-carboxamide] | 5 to 50 µM
CC(CN1CCOCC1)C(=O)N1CCC(O)(Cn2cc(C(=O)N(C)C)c(-c3ccccc3)cc2=O)C2(CCCC2)C1 (centres unmarked) [Example 163, 1-((10-Hydroxy-7-(2-methyl-3-morpholinopropanoyl)-7-azaspiro[4.5]decan-10-yl)methyl)-N,N-dimethyl-6-oxo-4-phenyl-1,6-dihydropyridine-3-carboxamide] | 5 to 50 µM
CN(C)C(=O)c1cn(CC2(O)CCN(C(=O)C(O)CC3CCCCC3)CC23CCCC3)c(=O)cc1-c1ccccc1 (centres unmarked) [Example 157, 1-((7-(3-Cyclohexyl-2-hydroxypropanoyl)-10-hydroxy-7-azaspiro[4.5]decan-10-yl)methyl)-N,N-dimethyl-6-oxo-4-phenyl-1,6-dihydropyridine-3-carboxamide] | < 0.5 µM
C[C@H](CC1CCCCC1)C(=O)N1CCC(O)(Cn2cc(C(=O)N(C)C)c(N(C)C)cc2=O)C2(CCCC2)C1 (stereo partly drawn) [Example 145, 1-((7-((R)-3-Cyclohexyl-2-methylpropanoyl)-10-hydroxy-7-azaspiro[4.5]decan-10-yl)methyl)-4-(dimethylamino)-N,N-dimethyl-6-oxo-1,6-dihydropyridine-3-carboxamide] | < 0.5 µM
C[C@H](CC(=O)N1CCC(O)(Cn2cc(C(=O)N3CCNCC3)c(-c3ccccc3)cc2=O)CC1)c1ccccc1 [Example 94, (R)-1-((4-Hydroxy-1-(3-phenylbutanoyl)piperidin-4-yl)methyl)-4-phenyl-5-(piperazine-1-carbonyl)pyridin-2(1H)-one] | 0.5 to 5 µM
C[C@H](CC(=O)N1CCC(O)(Cn2cnc(-c3ccccc3OC(F)(F)F)cc2=O)CC1)c1ccccc1 [Example 30, (R)-3-((4-Hydroxy-1-(3-phenylbutanoyl)piperidin-4-yl)methyl)-6-(2-(trifluoromethoxy)phenyl)pyrimidin-4(3H)-one] | 50 to 250 µM
C[C@H](CC1CCCCC1)C(=O)N1CCC(O)(Cn2cc(C(=O)N(C)C)c(-c3ccccc3CO)cc2=O)C2(CCCC2)C1 (stereo partly drawn) [Example 151, 1-((7-((R)-3-Cyclohexyl-2-methylpropanoyl)-10-hydroxy-7-azaspiro[4.5]decan-10-yl)methyl)-4-(2-(hydroxymethyl)phenyl)-N,N-dimethyl-6-oxo-1,6-dihydropyridine-3-carboxamide] | 5 to 50 µM
CC(C)N(C)C(=O)c1cn(CC2(O)CCN(C(=O)C[C@@H](c3ccccc3)C(F)F)CC2)c(=O)cc1-c1ccccc1 [Example 71, (S)-1-((1-(4,4-Difluoro-3-phenylbutanoyl)-4-hydroxypiperidin-4-yl)methyl)-N-isopropyl-N-methyl-6-oxo-4-phenyl-1,6-dihydropyridine-3-carboxamide] | 5 to 50 µM
C[C@H](CC1CCC1)C(=O)N1CC[C@@](O)(Cn2cc(C(=O)N3CCNCC3)c(-c3ccccc3)cc2=O)C2(CCCC2)C1 [Example 215, 1-(((S)-7-((R)-3-Cyclobutyl-2-methylpropanoyl)-10-hydroxy-7-azaspiro[4.5]decan-10-yl)methyl)-4-phenyl-5-(piperazine-1-carbonyl)pyridin-2(1H)-one] | < 0.5 µM
C[C@H](CC(=O)N1CCC(O)(Cn2cc(-c3ccco3)c(-c3ccccc3)cc2=O)CC1)c1ccccc1 [Example 8, (R)-5-(Furan-2-yl)-1-((4-hydroxy-1-(3-phenylbutanoyl)piperidin-4-yl)methyl)-4-phenylpyridin-2(1H)-one] | 5 to 50 µM
CCC(CC1CCCCC1)C(=O)N1CCC(O)(Cn2cnc(-c3ccccc3F)cc2=O)C(C)(C)C1 (centres unmarked) [Example 118, 3-((1-(2-(Cyclohexylmethyl)butanoyl)-4-hydroxy-3,3-dimethylpiperidin-4-yl)methyl)-6-(2-fluorophenyl)pyrimidin-4(3H)-one] | 0.5 to 5 µM
CN(C)C(=O)c1cn(C[C@]2(O)CCN(C(=O)[C@H](CCO)CC3CCCCC3)CC2(C)C)c(=O)cc1-c1ccccc1 [Example 164, 1-(((S)-1-((S)-2-(Cyclohexylmethyl)-4-hydroxybutanoyl)-4-hydroxy-3,3-dimethylpiperidin-4-yl)methyl)-N,N-dimethyl-6-oxo-4-phenyl-1,6-dihydropyridine-3-carboxamide] | < 0.5 µM
CC(C)N(C)C(=O)c1cn(CC2(O)CCN(C(=O)[C@H](C)CC3CCCCC3)CC2)c(=O)cc1-c1ccccc1 [Example 87, (R)-1-((1-(3-Cyclohexyl-2-methylpropanoyl)-4-hydroxypiperidin-4-yl)methyl)-N-isopropyl-N-methyl-6-oxo-4-phenyl-1,6-dihydropyridine-3-carboxamide] | 0.5 to 5 µM
CN(C)C(=O)c1cn(CC2(O)CCN(C(=O)c3c[nH]nc3C3CCCCC3)CC23CCCC3)c(=O)cc1-c1ccccc1 (centres unmarked) [Example 189, 1-((7-(3-Cyclohexyl-1H-pyrazole-4-carbonyl)-10-hydroxy-7-azaspiro[4.5]decan-10-yl)methyl)-N,N-dimethyl-6-oxo-4-phenyl-1,6-dihydropyridine-3-carboxamide] | 0.5 to 5 µM
